The values below come from patent publication US10065990B2, “Cyclic peptide compound, and preparation method, pharmaceutical composition and use thereof” (HANGZHOU GUANYU BIO-MEDICAL CO., LTD, priority 2013, dated 2018).

In experiment [1] the target is HDAC1 (Homo sapiens, UniProt Q13547). Kind of experiment: HDAC biochemical activity measurement (fluorescent substrate deacetylation).
Experiment [2] addresses HDAC2 (Homo sapiens, UniProt Q92769). The description is as above. As to conditions: 37° C. 30 minutes.
For experiment [3], the target named is T1, HDAC7 (Homo sapiens, UniProt Q8WUI4).
T1 sequence (Q8WUI4 1-952): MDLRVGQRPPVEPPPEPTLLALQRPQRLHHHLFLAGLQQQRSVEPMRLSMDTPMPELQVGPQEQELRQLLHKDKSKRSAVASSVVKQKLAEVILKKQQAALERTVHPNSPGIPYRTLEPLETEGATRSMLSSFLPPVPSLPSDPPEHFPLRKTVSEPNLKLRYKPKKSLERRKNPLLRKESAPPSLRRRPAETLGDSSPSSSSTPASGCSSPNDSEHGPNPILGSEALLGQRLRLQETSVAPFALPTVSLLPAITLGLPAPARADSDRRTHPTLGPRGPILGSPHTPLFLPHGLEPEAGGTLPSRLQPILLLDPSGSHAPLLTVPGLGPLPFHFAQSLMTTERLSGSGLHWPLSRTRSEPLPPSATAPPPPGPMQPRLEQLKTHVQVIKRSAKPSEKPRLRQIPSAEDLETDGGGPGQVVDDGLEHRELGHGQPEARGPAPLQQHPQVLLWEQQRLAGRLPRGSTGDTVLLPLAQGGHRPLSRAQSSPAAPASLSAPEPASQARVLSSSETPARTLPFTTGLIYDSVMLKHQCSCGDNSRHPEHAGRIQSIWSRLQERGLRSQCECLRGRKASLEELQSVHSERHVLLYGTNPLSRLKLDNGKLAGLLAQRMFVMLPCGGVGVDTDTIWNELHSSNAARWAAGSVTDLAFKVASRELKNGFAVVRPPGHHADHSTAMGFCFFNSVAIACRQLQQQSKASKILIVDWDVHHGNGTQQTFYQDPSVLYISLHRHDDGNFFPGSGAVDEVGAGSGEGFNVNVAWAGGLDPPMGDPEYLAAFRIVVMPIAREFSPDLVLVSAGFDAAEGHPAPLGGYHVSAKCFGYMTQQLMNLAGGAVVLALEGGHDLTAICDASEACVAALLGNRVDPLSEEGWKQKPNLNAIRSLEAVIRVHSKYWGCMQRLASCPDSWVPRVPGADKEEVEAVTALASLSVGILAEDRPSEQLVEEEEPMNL
The experiment is described as above. Conditions: HDAC7; 37° C. 30 minutes.

The subject of experiment [4] is A549 (human lung cancer cells). The experiment in a line: MTT cancer cell growth inhibition. The format is cell-based. Conditions: Homo sapiens, A549, 72 h, MTT. Summed up:
(§1)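 Using a 72 h MTT format, triplicate wells of 1500 cells received compound concentrations from 10^−5 to 10^−10 M. Formazan was read at 570 nm after DMSO dissolution, and GI50 was derived from viability.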

Experiment [5] deals with Huh-7 (human hepatoma cells). Kind of experiment: MTT cancer cell growth inhibition. As to conditions: Homo sapiens, Huh-7, 72 h, MTT, 72 hours incubation, Huh-7 cells; read-out: GI50 Huh-7. The format is cell-based. The essentials:
as §1

The subject of experiment [6] is KBM5-T315I (human chronic myelogenous leukemia). The experiment in a line: MTT cancer cell growth inhibition. The format is cell-based. Conditions: Homo sapiens, 72 h, MTT, 72 hours incubation, KBM5-T315I cells; read-out: GI50 KBM5-T315I. Summed up:
as §1

Experiment [7] deals with MCF-7 (human breast cancer cells). The experiment in a line: MTT cancer cell growth inhibition. The format is cell-based. As to conditions: Homo sapiens, MCF7, 72 h. The essentials: as §1
For experiment [8], the system named is MDA-MB-231 (breast cancer cells). The experiment in a line: MTT cancer cell growth inhibition. The class given is cell-based. As to conditions: Homo sapiens, MDA-MB-231, 72 h, read-out: GI50 MDA-MB-231, MTT, 72 hours incubation, MDA-MB-231 cells. Summed up:
as §1

In experiment [9] the test system is MOLT-4 (human acute lymphoblastic leukemia cells). Kind of experiment: MTT cancer cell growth inhibition. The class given is cell-based. As to conditions: Homo sapiens, MOLT-4, 72 h, MTT. The essentials:
as §1

In experiment [10] the test system is PANC-1 (Pac-1, human pancreatic cancer cells). The experiment in a line: MTT cancer cell growth inhibition. As to conditions: Homo sapiens, PANC-1, 72 h, MTT. The format is cell-based. Summed up: as §1
Experiment [11] deals with SGC-7901 (human gastric cancer cells). Kind of experiment: MTT cancer cell growth inhibition. As to conditions: Homo sapiens, SGC-7901, 72 h, MTT, 72 hours incubation, SGC-7901 cells; read-out: GI50 SGC-7901. The format is cell-based. Summed up:
as §1

For experiment [12], the system named is lncap (prostate cancer cells). Kind of experiment: MTT cancer cell growth inhibition. As to conditions: Homo sapiens, LNCaP, 72 h, MTT. The format is cell-based. The essentials:
as §1

Experiment [13] concerns the target T2, HDAC11 (Homo sapiens, UniProt Q96DB2).
T2 sequence (Q96DB2 1-347): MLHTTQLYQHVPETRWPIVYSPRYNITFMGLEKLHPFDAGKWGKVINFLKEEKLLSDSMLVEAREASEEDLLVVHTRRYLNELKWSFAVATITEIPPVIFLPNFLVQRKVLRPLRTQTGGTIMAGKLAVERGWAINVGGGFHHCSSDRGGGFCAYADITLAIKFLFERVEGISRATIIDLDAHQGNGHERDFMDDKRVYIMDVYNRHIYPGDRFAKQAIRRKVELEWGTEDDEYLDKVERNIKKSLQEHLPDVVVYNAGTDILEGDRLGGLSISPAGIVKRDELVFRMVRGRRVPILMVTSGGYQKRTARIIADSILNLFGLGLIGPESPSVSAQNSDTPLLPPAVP
Kind of experiment: HDAC biochemical activity measurement (fluorescent substrate deacetylation).

[14] abbreviates: HDAC1, 37° C. 30 minutes, read-out: IC50 HDAC1.
The mark [15] stands for this setting: Table 2, read-out: IC50 HDAC1, a (compounds of the present invention).
The mark [16] stands for this setting: A549 cells, 72 hours incubation, read-out: GI50 A54.
Where [17] appears, read: 72 hours, present invention, read-out: GI50 A549, a.
[18] abbreviates: 72 hours, present invention, read-out: GI50 MCF7, a.
Setting [19] is: MCF-7 cells, 72 hours incubation, read-out: GI50 MCF.
Where [20] appears, read: MOLT-4 cells, 72 hours incubation, read-out: GI50 Mol.
Setting [21] is: 72 hours, present invention, read-out: GI50 Molt-4, a.
Where [22] appears, read: 72 hours, present invention, read-out: GI50 PANC-1, a.
Where [23] appears, read: PANC-1 cells, 72 hours incubation, read-out: GI50 PAN.
Where [24] appears, read: 72 hours, present invention, read-out: GI50 lncap, a.
Setting [25] is: lncap cells, 72 hours incubation, read-out: GI50 lnca.
The mark [26] stands for this setting: 72 hours incubation, read-out: GI50 A54.
Setting [27] is: 72 hours incubation, read-out: GI50 MCF.
[28] abbreviates: 72 hours incubation, read-out: GI50 Mol.
Where [29] appears, read: 72 hours incubation, read-out: GI50 PAN.
The mark [30] stands for this setting: 72 hours incubation, read-out: GI50 lnca.
Where [31] appears, read: read-out: IC50 HDAC11, HDAC11, 37° C. 30 minutes.

Structures are written as SMILES. Like-named read-outs stand apart in the source and are kept apart here. A value given as a limit tells only on which side of the number the result lay.
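Throughout, for IC50 HDAC1, D (non-substituent): fluorogenic acetyl-lysine substrate (20 µM) deacetylated by HDAC1, then developer releases fluorophore read at 360 nm excitation and 460 nm emission, inhibitor incubated 30 min at 37 °C.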
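Throughout, for IC50 HDAC1, a (compounds of the present invention): fluorogenic acetyl-lysine substrate (20 µM) deacetylated by HDAC1, then developer releases fluorophore read at 360 nm excitation and 460 nm emission, inhibitor incubated 30 min at 37 °C.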
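Throughout, for IC50 HDAC1: fluorogenic acetyl-lysine substrate (20 µM) deacetylated by HDAC1, then developer releases fluorophore read at 360 nm excitation and 460 nm emission, inhibitor incubated 30 min at 37 °C.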
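Throughout, for IC50 HDAC7: fluorogenic deacetylation assay using acetyl-lysine substrate at 20 µM, enzyme and compound incubated 30 min at 37 °C, then developer added, fluorescence read at 360/460 nm.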

Sequence of HDAC2 (Q92769 whole entry, species assumed): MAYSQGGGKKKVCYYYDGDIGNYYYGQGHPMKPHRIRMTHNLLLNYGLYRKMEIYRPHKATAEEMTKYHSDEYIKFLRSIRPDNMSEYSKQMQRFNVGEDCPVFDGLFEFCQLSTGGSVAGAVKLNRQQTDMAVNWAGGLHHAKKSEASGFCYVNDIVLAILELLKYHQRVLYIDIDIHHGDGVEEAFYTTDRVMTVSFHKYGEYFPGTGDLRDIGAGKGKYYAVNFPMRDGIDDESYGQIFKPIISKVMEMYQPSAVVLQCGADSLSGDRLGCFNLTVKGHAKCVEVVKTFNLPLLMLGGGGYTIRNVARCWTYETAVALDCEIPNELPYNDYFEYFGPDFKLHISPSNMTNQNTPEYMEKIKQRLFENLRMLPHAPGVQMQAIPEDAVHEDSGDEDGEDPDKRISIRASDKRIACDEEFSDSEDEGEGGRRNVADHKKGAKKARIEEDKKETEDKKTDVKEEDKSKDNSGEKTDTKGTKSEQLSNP
Sequence of HDAC1 (Q13547 whole entry, species assumed): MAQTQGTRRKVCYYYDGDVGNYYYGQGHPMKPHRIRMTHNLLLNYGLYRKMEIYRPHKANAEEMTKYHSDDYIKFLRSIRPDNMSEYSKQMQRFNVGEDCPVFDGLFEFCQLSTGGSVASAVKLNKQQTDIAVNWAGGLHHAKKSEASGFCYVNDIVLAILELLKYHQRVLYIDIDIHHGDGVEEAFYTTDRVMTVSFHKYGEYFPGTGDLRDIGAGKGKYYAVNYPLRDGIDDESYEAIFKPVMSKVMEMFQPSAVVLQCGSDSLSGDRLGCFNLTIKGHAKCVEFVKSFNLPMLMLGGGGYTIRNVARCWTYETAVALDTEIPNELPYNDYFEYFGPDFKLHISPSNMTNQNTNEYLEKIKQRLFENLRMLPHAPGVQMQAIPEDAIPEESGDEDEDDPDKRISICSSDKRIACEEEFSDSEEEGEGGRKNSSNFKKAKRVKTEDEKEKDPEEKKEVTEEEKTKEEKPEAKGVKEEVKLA

Take `C/C=C1\NC(=O)c2cccc(n2)CNC(=O)C[C@@H](/C=C/CCSC(=O)CCCCCCC)OC(=O)[C@H](CSCC)NC1=O` [Compound 242]: the IC50 (in general, the concentration that inhibits the measured activity by half) in experiment [1] (setting [14]) was 19 nM; in [1] (setting [15]), below 20 nM; in experiment [2] it was 43 nM; in experiment [13], 67 nM. Besides, the “IC50 HDAC7” value in [3] is reported as “no activity”. For the same compound, the GI50 – broadly, the concentration at which growth is held to half of that of the control – in experiment [4] (setting [16]) was 190 nM; in experiment [4] (setting [17]) it was 190 nM; in [5] it was 59 nM; in experiment [6] it was 33 nM; in experiment [7] (setting [18]), 73 nM; in experiment [7] (setting [19]) it was 70 nM. The GI50 in [8] amounted to 16 nM; in [9] (setting [20]), 30 nM; in experiment [9] (setting [21]), 32 nM; in [10] (setting [22]) it was 950 nM; in experiment [10] (setting [23]), 950 nM; in experiment [11], 32 nM. For the same compound, the GI50 in [12] (setting [24]) and in experiment [12] (setting [25]) was 170 nM throughout.
Turning to `C/C=C1\NC(=O)c2nc(ccc2SC)CNC(=O)C[C@@H](/C=C/CCSC(=O)CCCCC)OC(=O)[C@H](C(C)C)NC1=O` [Compound 153], the IC50 was 72 nM in experiment [1] (setting [14]), 31 nM in experiment [2] and 72 nM in experiment [13]. The “IC50 HDAC7” value in [3] is “no activity”. Also, the concentration for 50% growth inhibition (GI50) was found to be 30 nM in [4] (setting [16]); 75 nM in [5]; 31 nM in experiment [6]; 60 nM in experiment [7] (setting [19]); 57 nM in [8]; 80 nM in experiment [9] (setting [20]). The GI50 stood at 20 nM in experiment [10] (setting [23]), 83 nM in experiment [11] and 50 nM in experiment [12] (setting [25]).
As to `C/C=C1\NC(=O)c2cccc(n2)CNC(=O)C[C@@H](/C=C/CCSC(=O)CCCCCCC)OC(=O)[C@H](C)NC1=O` [Compound 11], the IC50 is 29 nM in experiment [1] (setting [14]); below 30 nM in experiment [1] (setting [15]); 29 nM in [1] (Table 3, read-out: IC50 HDAC1, D (non-substituent)); 55 nM in [2]; 81 nM in experiment [13] (setting [31]). Further, the “IC50 HDAC7” value in [3] was “no activity”. The GI50 in experiment [4] (setting [26]) worked out at 430 nM; in [4] (setting [17]), 430 nM; in experiment [5], 43 nM; in [6] it was 26 nM; in experiment [7] (setting [27]) it was 50 nM; in [7] (setting [18]), 50 nM. Moreover, the GI50 was 86 nM in experiment [8]; 10 nM in [9] (setting [28]); 17 nM in [9] (setting [21]); 60 nM in experiment [10] (setting [29]); 60 nM in experiment [10] (setting [22]); 35 nM in experiment [11]. Further, the GI50 in [12] (setting [30]) was determined as 20 nM; in experiment [12] (setting [24]), 25 nM.
For the compound `C/C=C1\NC(=O)c2nc(ccc2F)CNC(=O)C[C@@H](/C=C/CCSC(C)=O)OC(=O)[C@H](C)NC1=O` [Example 63], the figures for the IC50 in experiment [1] (setting [14]), in experiment [2] and in experiment [13] were 41 nM, 58 nM and 91 nM, respectively. Further, in experiment [3], the “IC50 HDAC7” value was “no activity”. The GI50 in experiment [4] (setting [26]) amounted to 50 nM; in experiment [5], 49 nM; in [6], 57 nM; in experiment [7] (setting [27]) it was 50 nM; in [8], 49 nM; in experiment [9] (setting [28]), 40 nM. Further, the GI50 in experiment [10] (setting [29]) was found to be 90 nM; in experiment [11], 51 nM; in [12] (setting [30]) it was 40 nM.
Take `C/C=C1\NC(=O)c2nc(ccc2SC)CNC(=O)C[C@@H](/C=C/CCS)OC(=O)[C@H](C)NC1=O` [Compound 232]: the values for the IC50 in [1] (setting [14]), in [2] and in [13] were 66 nM, 93 nM and 152 nM, respectively. Also, in [3], the “IC50 HDAC7” value is recorded as “no activity”. Further, the GI50 in experiment [4] (setting [16]) was found to be 30 nM; in experiment [5], 21 nM; in experiment [6], 43 nM; in experiment [7] (setting [19]), 80 nM; in [8], 23 nM; in [9] (setting [20]) it was 50 nM. Further, the values for the GI50 in [10] (setting [23]), in experiment [11] and in experiment [12] (setting [25]) were 10 nM, 63 nM and 30 nM, respectively.
As to `C/C=C1\NC(=O)c2nc(ccc2C)CNC(=O)C[C@@H](/C=C/CCSC(=O)CCCCCCC)OC(=O)[C@H](C(C)C)NC1=O` [Compound 243], the IC50 in experiment [1] (setting [14]) is 87 nM; in experiment [1] (setting [15]), below 100 nM; in experiment [2] it was 56 nM; in experiment [13] (setting [31]), 187 nM. In experiment [3], the “IC50 HDAC7” value is “no activity”. Further, the concentration for 50% growth inhibition (GI50) in [4] (setting [16]) was 940 nM; in experiment [4] (setting [17]), 940 nM; in experiment [5], 53 nM; in [6], 45 nM; in experiment [7] (setting [18]) it was 120 nM; in [7] (setting [19]) it was 120 nM. Besides, the GI50 in experiment [8] was determined as 93 nM; in experiment [9] (setting [20]), 490 nM; in experiment [9] (setting [21]), 490 nM; in experiment [10] (setting [22]), 520 nM; in experiment [10] (setting [23]) it was 520 nM; in [11], 25 nM. Besides, the GI50 in [12] (setting [24]) and in experiment [12] (setting [25]) was 470 nM in each case.
